Results published in patent publication US10294214B2, “Positive allosteric modulators of human melanocortin-4 receptor” (Vanderbilt University, priority 2016, dated 2019).

Biological target: hMC4R (Homo sapiens (Human), UniProt P32245)
Experiment: LANCE cAMP assay, hMC4R PAM
Assay type: cell-based
Conditions: HEK293 cells stably expressing the hMC4R; α-MSH at an EC20 dose
Procedure: Analysis of pharmacological properties of compounds was performed using the LANCE cAMP kit (Perkin Elmer). HEK293 cells stably expressing the hMC4R were treated with PAM compounds at doses indicated, then incubated with an Alexa Fluor 647-labeled antibody in stimulation buffer according to manufacturer's instructions for 30 min at RT. Next, α-MSH was added (at an EC20 dose or at doses indicated for concentration-response curves), and plates were incubated for 15 minutes at RT, followed by the addition of 10 μL of detection mix. Plates were then incubated for 30 minutes at RT and read on a Viewlux (Perkin Elmer) using 618 and 671 nm emission filters. IBMX was not included in the assay.

Sequence of hMC4R (P32245 whole entry): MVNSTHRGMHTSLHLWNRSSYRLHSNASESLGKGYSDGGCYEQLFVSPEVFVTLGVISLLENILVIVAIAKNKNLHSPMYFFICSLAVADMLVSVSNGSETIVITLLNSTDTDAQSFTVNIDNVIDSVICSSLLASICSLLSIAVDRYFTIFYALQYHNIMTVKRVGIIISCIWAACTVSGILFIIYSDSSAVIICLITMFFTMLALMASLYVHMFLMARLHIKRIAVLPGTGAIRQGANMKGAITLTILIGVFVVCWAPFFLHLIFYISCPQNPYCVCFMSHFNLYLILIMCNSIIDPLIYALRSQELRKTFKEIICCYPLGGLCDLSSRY

SMILES: COC(=O)c1[nH]c2ccc(Cl)cc2c1NC(=O)CN1CCC(c2ccccc2)CC1 [Example 4]
- hMC4R PAM LANCE pEC50 Mean: 6.5

SMILES: COC(=O)c1[nH]c2ccc(Br)cc2c1NC(=O)CN1CCN(c2cccc(C)c2C)CC1 [Example 5]
- hMC4R PAM LANCE pEC50 Mean: 6.5

SMILES: COC(=O)c1[nH]c2cc(Br)ccc2c1NC(=O)CN1CCN(c2ccc(F)cc2)CC1 [Example 6]
- hMC4R PAM LANCE pEC50 Mean: 6.4

SMILES: CC1(C)CCCN(CC(=O)Nc2c(C(=O)C3CC3)[nH]c3ccc(Br)cc23)C1 [Example 7]
- hMC4R PAM LANCE pEC50 Mean: 6.4

SMILES: O=C(CN1CCC(c2ccccc2)CC1)Nc1c(C(=O)C2CC2)[nH]c2ccc(Br)cc12 [Example 8]
- hMC4R PAM LANCE pEC50 Mean: 6.5

SMILES: Cc1cccc(N2CCN(CC(=O)Nc3c(C(=O)C4CC4)[nH]c4ccc(Br)cc34)CC2)c1C [Example 9]
- hMC4R PAM LANCE pEC50 Mean: 6.4

SMILES: Cc1cccc(N2CCN(CC(=O)Nc3c(C(=O)C4CC4)[nH]c4ccccc34)CC2)c1C [Example 10]
- hMC4R PAM LANCE pEC50 Mean: 6.5

SMILES: COC(=O)c1[nH]c2ccccc2c1NC(=O)CN1CCC(c2ccccc2)CC1 [Example 11]
- hMC4R PAM LANCE pEC50 Mean: 6.5

SMILES: COC(=O)c1[nH]c2ccccc2c1NC(=O)CN1CCN(c2cccc(C(F)(F)F)c2)CC1 [Example 12]
- hMC4R PAM LANCE pEC50 Mean: 6.3

SMILES: COC(=O)c1[nH]c2ccc(Br)cc2c1NC(=O)CN1CCN(c2cccc(OC)c2)C(C)C1 (stereo not drawn) [Example 13]
- hMC4R PAM LANCE pEC50 Mean: 6.3

SMILES: O=C(CN1CCN(Cc2ccccc2)CC1)Nc1c(C(=O)C2CC2)[nH]c2ccc(Br)cc12 [Example 14]
- hMC4R PAM LANCE pEC50 Mean: 6.2

SMILES: COC(=O)c1[nH]c2ccc(Cl)cc2c1NC(=O)CN1CCN(c2ccccc2)CC1 [Example 15]
- hMC4R PAM LANCE pEC50 Mean: 6.2

SMILES: O=C(CN1CCC(c2ccccc2)CC1)Nc1c(C(=O)C2CC2)[nH]c2ccccc12 [Example 16]
- hMC4R PAM LANCE pEC50 Mean: 6.2

SMILES: COC(=O)c1[nH]c2ccc(Br)cc2c1NC(=O)CN1CCN(c2ccccc2)CC1 [Example 17]
- hMC4R PAM LANCE pEC50 Mean: 6.2

SMILES: CC(=O)c1[nH]c2ccccc2c1NC(=O)CN1CCC(Cc2ccccc2)CC1 [Example 18]
- hMC4R PAM LANCE pEC50 Mean: 6.1

SMILES: CC(=O)c1[nH]c2ccccc2c1NC(=O)CN1CCC(c2ccccc2)CC1 [Example 19]
- hMC4R PAM LANCE pEC50 Mean: 6.2

SMILES: COC(=O)c1[nH]c2ccc(Br)cc2c1NC(=O)C(C)N1CCC(Cc2ccccc2)CC1 (stereo not drawn) [Example 20]
- hMC4R PAM LANCE pEC50 Mean: 6.2

SMILES: COC(=O)c1[nH]c2ccc(Cl)cc2c1NC(=O)CN1CCC(Cc2ccccc2)CC1 [Example 21]
- hMC4R PAM LANCE pEC50 Mean: 6.2

SMILES: COC(=O)c1[nH]c2ccc(Br)cc2c1NC(=O)CN1CCC(Cc2ccccc2)CC1 [Example 22]
- hMC4R PAM LANCE pEC50 Mean: 6.2

SMILES: CC1(C)CCCN(CC(=O)Nc2c(C(=O)C3CC3)[nH]c3ccccc23)C1 [Example 23]
- hMC4R PAM LANCE pEC50 Mean: 6.1

SMILES: COC(=O)c1[nH]c2ccccc2c1NC(=O)CN1CCC(Cc2ccccc2)CC1 [Example 24]
- hMC4R PAM LANCE pEC50 Mean: 6

SMILES: COC(=O)c1[nH]c2ccccc2c1NC(=O)CN1CCC(Oc2ccccc2)CC1 [Example 25]
- hMC4R PAM LANCE pEC50 Mean: 6

SMILES: COC(=O)c1[nH]c2ccc(Br)cc2c1NC(=O)CN1CCCCC1 [Example 26]
- hMC4R PAM LANCE pEC50 Mean: 6

SMILES: COC(=O)c1[nH]c2ccc(C)cc2c1NC(=O)CN1CCN(c2cccc(C)c2C)CC1 [Example 27]
- hMC4R PAM LANCE pEC50 Mean: 5.9

SMILES: CCOC(=O)c1[nH]c2ccncc2c1NC(=O)CN1CCCC(C)(C)C1 [Example 28]
- hMC4R PAM LANCE pEC50 Mean: 5.8

SMILES: COC(=O)c1[nH]c2ccccc2c1NC(=O)CN1CCCC2(CCC2)C1 [Example 29]
- hMC4R PAM LANCE pEC50 Mean: 5.9

SMILES: COC(=O)c1[nH]c2ccccc2c1NC(=O)C(C)N1CCC(Cc2ccccc2)CC1 (stereo not drawn) [Example 30]
- hMC4R PAM LANCE pEC50 Mean: 5.9

SMILES: COC(=O)c1[nH]c2ccc(C)cc2c1NC(=O)CN1CCN(c2cccc(OC)c2)C(C)C1 (stereo not drawn) [Example 31]
- hMC4R PAM LANCE pEC50 Mean: 5.8

SMILES: COC(=O)c1[nH]c2ccccc2c1NC(=O)CN1CCC(Oc2ccccn2)CC1 [Example 32]
- hMC4R PAM LANCE pEC50 Mean: 5.8

SMILES: CC(=O)c1[nH]c2ccccc2c1NC(=O)CN1CCN(Cc2ccccc2)CC1 [Example 33]
- hMC4R PAM LANCE pEC50 Mean: 5.6
